Assay results published in the NIST ThermoML archive (doi:10.1021/je030147g).
Several values for one entry are separate records, joined by “and”; a condition that tells them apart may be missing. Equal values may be shown once.

Experiments:
[1] = 101.33 kPa, Liquid
[2] = refractive index (Na D-line) (dimensionless); conditions: 101.33 kPa, Liquid
[3] = xn = mol fraction of the nth substance listed; conditions: 101.33 kPa, Liquid
[4] = refractive index (Na D-line) (dimensionless); xn = mol fraction of the nth substance listed; conditions: 101.33 kPa, Liquid

C1CCOC1 [tetrahydrofuran]
Conditions | mass density, 298.15 K [kg/m3] | mass density, 303.15 K [kg/m3] | mass density, 308.15 K [kg/m3] | refractive index, 298.15 K | refractive index, 303.15 K | refractive index, 308.15 K | speed of sound, 298.15 K [m/s] | viscosity, 298.15 K [mPa·s] | viscosity, 303.15 K [mPa·s] | viscosity, 308.15 K [mPa·s]
[1] | 882.9 | 877.5 | 871.2 | – | – | – | 1288 | 0.485 | 0.46 | 0.439
[2] | – | – | – | 1.4049 | 1.4026 | 1.3998 | – | – | – | –

ClC(Cl)=C(Cl)Cl [tetrachloroethene]
Conditions | mass density, 298.15 K [kg/m3] | mass density, 303.15 K [kg/m3] | mass density, 308.15 K [kg/m3] | refractive index, 298.15 K | refractive index, 303.15 K | refractive index, 308.15 K | speed of sound, 298.15 K [m/s] | viscosity, 298.15 K [mPa·s] | viscosity, 303.15 K [mPa·s] | viscosity, 308.15 K [mPa·s]
[1] | 1616 | 1607.5 | 1597.5 | – | – | – | 1033 | 0.875 | 0.831 | 0.791
[2] | – | – | – | 1.5036 | 1.5005 | 1.4978 | – | – | – | –

CCCCN(CCCC)CCCC [tributylamine]
Conditions | mass density, 298.15 K | mass density, 303.15 K [kg/m3] | mass density, 308.15 K [kg/m3] | refractive index, 298.15 K | refractive index, 303.15 K | refractive index, 308.15 K | speed of sound, 298.15 K [m/s] | viscosity, 298.15 K [mPa·s] | viscosity, 303.15 K | viscosity, 308.15 K
[1] | 773.9 kg/m3 and 773.3 kg/m3 | 769.2 | 765.7 | – | – | – | 1262 | 1.239 | 1.123 mPa·s and 1.124 mPa·s | 1.028 mPa·s and 1.02 mPa·s and 1.103 mPa·s
[2] | – | – | – | 1.4276 | 1.4255 and 1.4254 | 1.4228 | – | – | – | –

c1ccncc1 [pyridine]
Conditions | mass density, 298.15 K [kg/m3] | mass density, 303.15 K [kg/m3] | mass density, 308.15 K [kg/m3] | refractive index, 298.15 K | refractive index, 303.15 K | refractive index, 308.15 K | speed of sound, 298.15 K [m/s] | viscosity, 298.15 K [mPa·s] | viscosity, 303.15 K [mPa·s] | viscosity, 308.15 K [mPa·s]
[1] | 979 | 973.7 | 968.6 | – | – | – | 1412 | 0.885 | 0.82 | 0.766
[2] | – | – | – | 1.5062 | 1.5025 | 1.5016 | – | – | – | –

CCN(CC)CC [triethylamine]
Conditions | mass density, 298.15 K [kg/m3] | mass density, 303.15 K [kg/m3] | mass density, 308.15 K [kg/m3] | refractive index, 298.15 K | refractive index, 303.15 K | refractive index, 308.15 K | speed of sound, 298.15 K [m/s] | viscosity, 298.15 K [mPa·s] | viscosity, 303.15 K [mPa·s] | viscosity, 308.15 K [mPa·s]
[1] | 723.3 | 718.6 | 713.7 | – | – | – | 1123 | 0.367 | 0.349 | 0.332
[2] | – | – | – | 1.3992 | 1.3958 | 1.3929 | – | – | – | –

ClC=C(Cl)Cl [trichloroethene]
Conditions | mass density, 298.15 K [kg/m3] | mass density, 303.15 K [kg/m3] | mass density, 308.15 K [kg/m3] | refractive index, 298.15 K | refractive index, 303.15 K | refractive index, 308.15 K | speed of sound, 298.15 K [m/s] | viscosity, 298.15 K [mPa·s] | viscosity, 303.15 K [mPa·s] | viscosity, 308.15 K [mPa·s]
[1] | 1456.7 | 1447.1 | 1439.5 | – | – | – | 1028 | 0.595 | 0.571 | 0.549
[2] | – | – | – | 1.4752 | 1.4722 | 1.469 | – | – | – | –

CCCCCCCCCCCCCC [tetradecane]
Conditions | mass density, 298.15 K [kg/m3] | mass density, 303.15 K [kg/m3] | mass density, 308.15 K [kg/m3] | refractive index, 298.15 K | refractive index, 303.15 K | refractive index, 308.15 K | speed of sound, 298.15 K [m/s] | viscosity, 298.15 K [mPa·s] | viscosity, 303.15 K [mPa·s] | viscosity, 308.15 K [mPa·s]
[1] | 760.7 | 757 | 753.3 | – | – | – | 1315 | 2.032 | 1.827 | 1.653
[2] | – | – | – | 1.4282 | 1.426 | 1.4236 | – | – | – | –

CCCCN(CCCC)CCCC [tributylamine] + CCCCCCCCCCCCCC
Conditions | mass density, 298.15 K [kg/m3] | mass density, 303.15 K [kg/m3] | mass density, 308.15 K [kg/m3] | refractive index, 298.15 K | refractive index, 303.15 K | refractive index, 308.15 K | speed of sound, 298.15 K [m/s] | viscosity, 298.15 K [mPa·s] | viscosity, 303.15 K [mPa·s] | viscosity, 308.15 K [mPa·s]
[3], x1 = 0.1081 | 761.9 | 758.1 | 754.4 | – | – | – | 1303 | 1.93 | 1.75 | 1.57
[3], x1 = 0.2058 | 762.9 | 759.2 | 755.5 | – | – | – | 1292 | 1.842 | 1.671 | 1.499
[3], x1 = 0.2802 | 763.8 | 760 | 756.3 | – | – | – | 1287 | 1.774 | 1.612 | 1.45
[3], x1 = 0.4095 | 765.3 | 761.5 | 757.8 | – | – | – | 1283 | 1.668 | 1.518 | 1.368
[3], x1 = 0.5112 | 766.6 | 762.9 | 759.1 | – | – | – | 1279 | 1.585 | 1.448 | 1.31
[3], x1 = 0.6101 | 767.9 | 764.2 | 760.5 | – | – | – | 1275 | 1.511 | 1.386 | 1.261
[3], x1 = 0.7051 | 769.3 | 765.5 | 761.9 | – | – | – | 1272 | 1.441 | 1.329 | 1.216
[3], x1 = 0.7999 | 770.9 | 767 | 763.1 | – | – | – | 1270 | 1.375 | 1.274 | 1.173
[3], x1 = 0.8953 | 772.4 | 768.4 | 764.4 | – | – | – | 1267 | 1.309 | 1.222 | 1.135
[3], x1 = 1 | 773.9 | 769.2 | 765.7 | – | – | – | 1262 | 1.239 | 1.124 | 1.103
[4], x1 = 0.1081 | – | – | – | 1.4283 | 1.4258 | 1.4234 | – | – | – | –
[4], x1 = 0.2058 | – | – | – | 1.4282 | 1.4257 | 1.4234 | – | – | – | –
[4], x1 = 0.2802 | – | – | – | 1.428 | 1.4256 | 1.4232 | – | – | – | –
[4], x1 = 0.4095 | – | – | – | 1.4278 | 1.4254 | 1.4231 | – | – | – | –
[4], x1 = 0.5112 | – | – | – | 1.4278 | 1.4254 | 1.423 | – | – | – | –
[4], x1 = 0.6101 | – | – | – | 1.4278 | 1.4254 | 1.423 | – | – | – | –
[4], x1 = 0.7051 | – | – | – | 1.4279 | 1.4255 | 1.4231 | – | – | – | –
[4], x1 = 0.7999 | – | – | – | 1.4281 | 1.4256 | 1.4231 | – | – | – | –
[4], x1 = 0.8953 | – | – | – | 1.428 | 1.4255 | 1.4231 | – | – | – | –
[4], x1 = 1 | – | – | – | 1.4276 | 1.4255 | 1.4228 | – | – | – | –
